From patent US11702428B2, “Chemical compounds as inhibitors of interleukin-1 activity” (Genentech, Inc., priority 2017, dated 2023)
Read-outs that look alike come from different tables or passages of the source.

Tests used:
[1] = target: NLRP3 inflammasome (Homo sapiens, UniProt Q96P20); test: NLRP3 inflammasome activation assay in PBMCs (LPS priming, nigericin), IL-1β by ELISA; assay type: cell-based; set-up: Human peripheral blood mononuclear cells (PBMCs); host or cells: primary human PBMCs from healthy donors
Experimental: Some of the following assays were used to determine the inhibitory activity of the compounds on the NLRP3 inflammasome using a common inflammasome activation stimuli-nigericin.
Human peripheral blood mononuclear cells (PBMCs), consisting of lymphocytes (T, B and NK cells), monocytes and dendritic cells, were freshly isolated from human peripheral blood from healthy donors. Cells were obtained through an IRB approved donor program by iXCells Biotechnologies where all the donors were tested for bacterial and viral infections. Cells were purified from peripheral blood using ficoll gradient centrifugation.
Cells were then stimulated with 10 uM Nigericin (Sigma Aldrich; InvivoGen) for 1.5 h. Plates were centrifuged at 1,500 rpm for 3 minutes to pellet cells and supernatant was transferred into new plates for subsequent experiments.
For ELISA assays cells were seeded into 96-well plates. Post study, supernatants were removed and the levels of mature IL-1β, IL-18 and TNFα (Quantikine ELISA, R&D systems) were measured in cell conditioned media by ELISA according to manufacturer's instructions.

[2] = tested on: LPS and nigericin stimulated cells; test: cells; assay type: cell-based; settings: Homo sapiens, read-out: CTG protective IC50
Experimental: Viability of compound treated cells is measured using CellTiter-Glo® assay (Promega, Madison, Wis.) that measures the ATP content of cells which is proportional to the number of live cells within a well. This is a counter-screen to establish that the reduction of IL-1β levels in LPS and nigericin stimulated and compound treated cells is not due to cytotoxicity, but rather through the inhibition of the inflammasome pathway. Compounds inhibiting NRLP3 inflammasome activation ultimately increase the viability of LPS and nigericin stimulated cells by blocking NLRP3 mediated pyroptosis that would otherwise lead to cell lysis.

[3] = LPS, nigericin, read-out: PBMC IL-1β IC50
[4] = LPS and nigericin stimulated cells, CellTiter-Glo
[5] = LPS 100 ng/mL 3 h, nigericin 10 uM 1.5 h, read-out: IC50 IL-1β

Chain of NLRP3 inflammasome (Q96P20 whole entry): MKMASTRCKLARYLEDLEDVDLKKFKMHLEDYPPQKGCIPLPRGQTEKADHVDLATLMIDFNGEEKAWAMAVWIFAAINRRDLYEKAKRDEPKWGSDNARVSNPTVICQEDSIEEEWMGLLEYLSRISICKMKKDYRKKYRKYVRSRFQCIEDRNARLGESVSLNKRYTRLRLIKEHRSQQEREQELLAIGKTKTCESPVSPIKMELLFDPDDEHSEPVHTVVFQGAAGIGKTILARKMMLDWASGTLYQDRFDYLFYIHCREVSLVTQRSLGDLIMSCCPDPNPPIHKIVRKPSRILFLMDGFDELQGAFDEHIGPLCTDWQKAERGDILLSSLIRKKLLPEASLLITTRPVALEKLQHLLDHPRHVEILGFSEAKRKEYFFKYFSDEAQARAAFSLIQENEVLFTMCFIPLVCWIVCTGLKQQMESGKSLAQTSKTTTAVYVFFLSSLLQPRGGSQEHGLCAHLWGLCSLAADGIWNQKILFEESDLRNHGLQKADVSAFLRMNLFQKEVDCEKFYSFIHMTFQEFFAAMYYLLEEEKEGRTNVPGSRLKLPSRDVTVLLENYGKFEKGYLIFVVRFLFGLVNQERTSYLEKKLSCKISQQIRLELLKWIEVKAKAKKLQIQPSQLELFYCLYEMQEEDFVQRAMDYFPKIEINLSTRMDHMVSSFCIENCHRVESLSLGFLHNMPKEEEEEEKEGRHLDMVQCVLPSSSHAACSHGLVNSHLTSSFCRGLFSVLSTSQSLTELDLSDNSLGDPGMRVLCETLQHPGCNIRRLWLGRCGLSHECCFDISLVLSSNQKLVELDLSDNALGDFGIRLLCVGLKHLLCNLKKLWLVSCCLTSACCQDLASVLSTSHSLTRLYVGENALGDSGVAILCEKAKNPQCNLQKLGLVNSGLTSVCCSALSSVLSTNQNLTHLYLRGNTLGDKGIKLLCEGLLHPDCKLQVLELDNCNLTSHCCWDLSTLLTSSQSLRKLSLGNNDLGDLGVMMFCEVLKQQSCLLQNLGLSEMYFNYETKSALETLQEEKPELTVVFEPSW

SMILES | IC50 [1, 3] [nM] | IC50 [2, 4] [nM] | further results
O=C(Nc1c2c(cc3c1CCC3)CCC2)NS(=O)(=O)c1cnn2c1C(F)CCC2 (stereo not drawn) | 100 to 1000 | < 100 | –
O=C(Nc1c2c(cc3c1CCC3)CCC2)NS(=O)(=O)c1cc2n(n1)CCNC2=O | 100 to 1000 | – | –
CN1CCn2nc(S(=O)(=O)NC(=O)Nc3c4c(cc5c3CCC5)CCC4)cc2C1=O | 1000 to 10000 | – | –
O=C(Nc1c2c(cc3c1CCC3)CCC2)NS(=O)(=O)c1cnn2c1OCC2 | 100 to 1000 | < 100 | –
NC1COc2c(S(=O)(=O)NC(=O)Nc3c4c(cc5c3CCC5)CCC4)cnn2C1 (stereo not drawn) | 100 to 1000 | < 100 | –
O=C(Nc1c2c(cc3c1CCC3)CCC2)NS(=O)(=O)c1cnn2c1C(F)(F)CCC2 | 100 to 1000 | > 10000 | –
CC1(C)COc2c(S(=O)(=O)NC(=O)Nc3c4c(c(Cl)c5c3CCC5)CCC4)cnn2C1 | 100 to 1000 | – | –
Cc1ccc(S(=O)(=O)N2CC3(COc4c(S(=O)(=O)NC(=O)Nc5c6c(cc7c5CCC7)CCC6)cnn4C3)C2)cc1 | 1000 to 10000 | 100 to 1000 | –
O=C(Nc1c2c(cc3c1CCC3)CCC2)NS(=O)(=O)c1cnn2c1OC[C@@H](O)C2 | 100 to 1000 | < 100 | –
CCNC1COc2c(S(=O)(=O)NC(=O)Nc3c4c(cc5c3CCC5)CCC4)cnn2C1 (stereo not drawn) | < 100 | < 100 | –
CN(C)[C@@H]1COc2c(S(=O)(=O)NC(=O)Nc3c4c(cc5c3CCC5)CCC4)cnn2C1 | – | – | IC50 [2]: > 10000 nM
CCOC1COc2c(S(=O)(=O)NC(=O)Nc3c4c(cc5c3CCC5)CCC4)cnn2C1 (stereo not drawn) | < 100 | < 100 | –
CC(C)OC1COc2c(S(=O)(=O)NC(=O)Nc3c4c(cc5c3CCC5)CCC4)cnn2C1 (stereo not drawn) | 100 to 1000 | < 100 | –
C[C@@H]1COc2c(S(=O)(=O)NC(=O)Nc3c4c(cc5c3CCC5)CCC4)cnn2C1 | < 100 | < 100 | –
CCN[C@@H]1COc2c(S(=O)(=O)NC(=O)Nc3c4c(cc5c3CCC5)CCC4)cnn2C1 | 1000 to 10000 | 1000 to 10000 | –
CN(CC1COc2c(S(=O)(=O)NC(=O)Nc3c4c(cc5c3CCC5)CCC4)cnn2C1)C(=O)OC(C)(C)C (stereo not drawn) | 100 to 1000 | 100 to 1000 | –
CNCC1COc2c(S(=O)(=O)NC(=O)Nc3c4c(cc5c3CCC5)CCC4)cnn2C1 (stereo not drawn) | 1000 to 10000 | 1000 to 10000 | –
CN(C)CC1COc2c(S(=O)(=O)NC(=O)Nc3c4c(cc5c3CCC5)CCC4)cnn2C1 (stereo not drawn) | – | – | IC50 [2]: 1000 to 10000 nM
COC1(C)COc2c(S(=O)(=O)NC(=O)Nc3c4c(cc5c3CCC5)CCC4)cnn2C1 (stereo not drawn) | 100 to 1000 | 100 to 1000 | –
CC[C@@H]1COc2c(S(=O)(=O)NC(=O)Nc3c4c(cc5c3CCC5)CCC4)cnn2C1 | 100 to 1000 | 100 to 1000 | –
CC[C@H]1COc2c(S(=O)(=O)NC(=O)Nc3c4c(cc5c3CCC5)CCC4)cnn2C1 | < 100 | < 100 | –

SMILES | IC50 [1, 3] [nM] | IC50 [2, 4] [nM] | further results
CC(C)c1cc(C#N)cc(C(C)C)c1NC(=O)NS(=O)(=O)c1cnn2c1OCCC2 | 100 to 1000 | < 100 | –
O=C(Nc1c2c(cc3c1CCC3)CCC2)NS(=O)(=O)c1cnn2c1OCC(N1CC(F)C1)C2 (stereo not drawn) | 100 to 1000 | < 100 | –
CN1CCn2ncc(S(=O)(=O)NC(=O)Nc3c4c(cc5c3CCC5)CCC4)c2C1=O | – | – | IC50 [2]: 1000 to 10000 nM
CC1(O)COc2c(S(=O)(=O)NC(=O)Nc3c4c(cc5c3CCC5)CCC4)cnn2C1 (stereo not drawn) | 100 to 1000 | < 100 | –
CO[C@H]1COc2c(S(=O)(=O)NC(=O)Nc3c(C(C)C)cc(Cl)cc3C(C)C)cnn2C1 | 100 to 1000 | 100 to 1000 | –
CN[C@@H]1COc2c(S(=O)(=O)NC(=O)Nc3c4c(cc5c3CCC5)CCC4)cnn2C1 | – | – | IC50 [2]: 100 to 1000 nM
O=C(Nc1c(C2CC2)cc(Cl)cc1C1CC1)NS(=O)(=O)c1cnn2c1OCCC2 | 100 to 1000 | 100 to 1000 | –
COc1ccc2cccnc2c1NC(=O)NS(=O)(=O)c1cnn2c1OCCC2 | – | – | PBMC IL-1β IC50 ([1]; LPS, nigericin): No Curve
COC1CN(C2COc3c(S(=O)(=O)NC(=O)Nc4c5c(cc6c4CCC6)CCC5)cnn3C2)C1 (stereo not drawn) | – | – | IC50 [2]: < 100 nM
O=C(Nc1cc(C2CC2)cc(C2CC2)c1)NS(=O)(=O)c1cnn2c1OCCC2 | 100 to 1000 | < 100 | –
C#CCOC1COc2c(S(=O)(=O)NC(=O)Nc3c4c(cc5c3CCC5)CCC4)cnn2C1 (stereo not drawn) | < 100 | < 100 | –
CC1(C)Cc2cccc(NC(=O)NS(=O)(=O)c3cnn4c3OCCC4)c2O1 | > 10000 | – | –
O=C(Nc1c2c(c(F)c3c1CCC3)CCC2)NS(=O)(=O)c1cnn2c1OCCC2 | < 100 | < 100 | –
COC1CN([C@@H]2COc3c(S(=O)(=O)NC(=O)Nc4c5c(cc6c4CCC6)CCC5)cnn3C2)C1 | – | – | IC50 [2]: < 100 nM
Cc1nn2c(c1S(=O)(=O)NC(=O)Nc1c3c(cc4c1CCC4)CCC3)OCCC2 | 100 to 1000 | < 100 | –
O=C(Nc1c(C2CC2)cc(Cl)c2c1CCC2)NS(=O)(=O)c1cnn2c1OCCC2 | 100 to 1000 | 1000 to 10000 | –
CC(=O)NCC1COc2c(S(=O)(=O)NC(=O)Nc3c4c(cc5c3CCC5)CCC4)cnn2C1 (stereo not drawn) | < 100 | < 100 | –
CO[C@H]1COc2c(S(=O)(=O)NC(=O)Nc3c4c(c(F)c5c3CCC5)CCC4)cnn2C1 | < 100 | – | –
CO[C@H]1COc2c(S(=O)(=O)NC(=O)Nc3c(C(C)C)cc(F)cc3C(C)C)cnn2C1 | < 100 | < 100 | –
CN[C@H]1COc2c(S(=O)(=O)NC(=O)Nc3c(C(C)C)cc(F)cc3C(C)C)cnn2C1 | < 100 | – | –
O=C(Nc1c2c(cc3c1CCC3)CCC2)NS(=O)(=O)c1cnn2c1OCC(CNC(=O)C(F)(F)F)C2 (stereo not drawn) | < 100 | – | –

SMILES | IC50 [1, 3] [nM] | IC50 [2, 4] [nM] | further results
NCC1COc2c(S(=O)(=O)NC(=O)Nc3c4c(cc5c3CCC5)CCC4)cnn2C1 (stereo not drawn) | 100 to 1000 | – | –
CC(C)c1cc(F)cc(C(C)C)c1NC(=O)NS(=O)(=O)c1cnn2c1OCCC2 | 100 to 1000 | 100 to 1000 | –
O=S(=O)(NC(=S)Nc1c2c(cc3c1CCC3)CCC2)c1cnn2c1OCCC2 [drawing 494] | – | – | IC50 [1, 5]: 1000 to 10000 nM
O=C(Nc1c2c(cc3c1CCC3)CCC2)NS(=O)(=O)c1cnn2c1OCC1(COC1)C2 [drawing 496] | – | – | IC50 [1, 5]: 100 to 1000 nM
CC(C)c1cccc(C(C)C)c1NC(=O)NS(=O)(=O)c1cnn2c1OCCC2 [drawing 497] | – | – | IC50 [1, 5]: 1000 to 10000 nM
CC(C)c1cc(Cl)cc(C(C)C)c1NC(=O)NS(=O)(=O)c1cnn2c1OCCC2 [drawing 498] | – | – | IC50 [1, 5]: 100 to 1000 nM
CC1(C)COc2c(S(=O)(=O)NC(=O)Nc3c4c(cc5c3CCC5)CCC4)cnn2C1 [drawing 499] | – | – | IC50 [1, 5]: < 100 nM
O=C(Nc1c2c(cc3c1CCC3)CCC2)NS(=O)(=O)c1cnn2c1OCC(O)C2 (stereo not drawn) [drawing 500] | – | – | IC50 [1, 5]: < 100 nM
O=C(Nc1c2c(cc3c1CCC3)CCC2)NS(=O)(=O)c1cnn2c1OCCCC2 [drawing 501] | – | – | IC50 [1, 5]: 100 to 1000 nM
CC1CCOc2c(S(=O)(=O)NC(=O)Nc3c4c(cc5c3CCC5)CCC4)cnn21 (stereo not drawn) [drawing 502] | – | – | IC50 [1, 5]: 100 to 1000 nM
O=C(Nc1c2c(cc3c1CCC3)CCC2)NS(=O)(=O)c1cnn2c1OCC(F)C2 (stereo not drawn) [drawing 503] | – | – | IC50 [1, 5]: 100 to 1000 nM
COC1COc2c(S(=O)(=O)NC(=O)Nc3c4c(cc5c3CCC5)CCC4)cnn2C1 (stereo not drawn) [drawing 504] | – | – | IC50 [1, 5]: < 100 nM
CC1CCn2ncc(S(=O)(=O)NC(=O)Nc3c4c(cc5c3CCC5)CCC4)c2O1 (stereo not drawn) [drawing 505] | – | – | IC50 [1, 5]: < 100 nM
O=C(Nc1c2c(c(Cl)c3c1CCC3)CCC2)NS(=O)(=O)c1cnn2c1OCCC2 [drawing 506] | – | – | IC50 [1, 5]: < 100 nM
O=C(Nc1c2c(cc3c1CCC3)CCC2)NS(=O)(=O)c1cnn2c1OCC1(COC1)C2 [drawing 510] | 100 to 1000 | – | –
CC(C)c1cccc(C(C)C)c1NC(=O)NS(=O)(=O)c1cnn2c1OCCC2 [drawing 511] | 1000 to 10000 | – | –
CC(C)c1cc(Cl)cc(C(C)C)c1NC(=O)NS(=O)(=O)c1cnn2c1OCCC2 [drawing 512] | 100 to 1000 | – | –
O=C(Nc1c2c(c(Cl)c3c1CCC3)CCC2)NS(=O)(=O)c1cnn2c1OCCC2 [drawing 520] | < 100 | – | –
COC1CN([C@H]2COc3c(S(=O)(=O)NC(=O)Nc4c5c(cc6c4CCC6)CCC5)cnn3C2)C1 [drawing 580] | – | – | IC50 [2]: < 100 nM
